Test results taken from ChEMBL document CHEMBL1201862, “PubChem BioAssay data set” (2004).
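Exposure lasted 48 hours, with cells grown in 96-well plates and compounds tested at five concentrations. GI50: concentration for 50% inhibition of growth.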 Activity calls are given as the source filed them. No stated cut-off is given here; in the data, active = GI50 up to about 1.1 µM and inactive = higher.

Assays:
Assay in all cases: DTP human tumour cell line panel, 48 h
[1] = test system: HT-29
[2] = test system: HCT-116
[3] = test system: SK-MEL-28
[4] = test system: PC-3
[5] = test system: KM12
[6] = test system: CCRF-CEM
[7] = test system: HL-60
[8] = test system: OVCAR-3
[9] = test system: SNB-75
[10] = test system: UACC-257
[11] = test system: UACC-62
[12] = test system: EKVX
[13] = test system: A498
[14] = test system: RXF 393
[15] = test system: SW-620
[16] = test system: SF-295
[17] = test system: NCI-H226
[18] = test system: SF-539
[19] = test system: M14
[20] = test system: SK-OV-3

`N#CC12CNCC1CN=N2` (stereo not given) was tested, and the GI50 [1] was > 100 µM (inactive), the GI50 [2] was > 100 µM (inactive) and the GI50 [3] was > 100 µM (inactive). The GI50 [4] was > 100 µM (inactive), the GI50 [5] was > 100 µM (inactive) and the GI50 [6] was > 100 µM (inactive). The GI50 [7] was > 100 µM (inactive), the GI50 [8] was > 100 µM (inactive) and the GI50 [9] was > 100 µM (inactive). For the same compound, the GI50 [10] was > 100 µM (inactive), the GI50 [11] was > 100 µM (inactive) and the GI50 [12] was > 100 µM (inactive). The GI50 [13] was > 100 µM (inactive), the GI50 [14] was > 100 µM (inactive) and the GI50 [15] was > 100 µM (inactive). The GI50 [16] was > 100 µM (inactive) and the GI50 [17] was > 100 µM (inactive).

For `CNC1(C(=O)O)CC1`, the GI50 [1] was > 100 µM (inactive), the GI50 [2] was > 100 µM (inactive) and the GI50 [3] was > 100 µM (inactive). The GI50 [4] was > 100 µM (inactive), the GI50 [5] was > 100 µM (inactive) and the GI50 [6] was > 100 µM (inactive). The GI50 [7] was > 100 µM (inactive), the GI50 [8] was > 100 µM (inactive) and the GI50 [18] was > 100 µM (inactive). For the same compound, the GI50 [10] was > 100 µM (inactive), the GI50 [11] was 69.2 µM (inactive) and the GI50 [12] was > 100 µM (inactive). For the same compound, the GI50 [13] was > 100 µM (inactive), the GI50 [14] was > 100 µM (inactive) and the GI50 [15] was > 100 µM (inactive). The GI50 [16] was > 100 µM (inactive), the GI50 [17] was > 100 µM (inactive) and the GI50 [19] was > 100 µM (inactive).

With `CSc1c(CC(=O)O)n(Cc2ccccc2)c2ccccc12` the GI50 [1] was > 100 µM (inactive), the GI50 [2] was > 100 µM (inactive) and the GI50 [3] was > 100 µM (inactive). For the same compound, the GI50 [4] was > 100 µM (inactive), the GI50 [5] was > 100 µM (inactive) and the GI50 [6] was 84.7 µM (inactive). For the same compound, the GI50 [7] was > 100 µM (inactive), the GI50 [8] was > 100 µM (inactive) and the GI50 [9] was > 100 µM (inactive). For the same compound, the GI50 [18] was > 100 µM (inactive), the GI50 [10] was > 100 µM (inactive) and the GI50 [11] was 81.3 µM (inactive). The GI50 [12] was 74.5 µM (inactive), the GI50 [13] was > 100 µM (inactive) and the GI50 [14] was > 100 µM (inactive). For the same compound, the GI50 [15] was > 100 µM (inactive), the GI50 [16] was 79.8 µM (inactive) and the GI50 [19] was > 100 µM (inactive). The GI50 [20] was > 100 µM (inactive).

With `C[n+]1c2ccccc2c(N=[N+]=[N-])c2ccccc21` the GI50 [1] was 3.93 µM (inactive), the GI50 [2] was 4.22 µM (inactive) and the GI50 [3] was > 10 µM (inactive). For the same compound, the GI50 [4] was 5.37 µM (inactive), the GI50 [5] was > 10 µM (inactive) and the GI50 [6] was 3.33 µM (inactive). For the same compound, the GI50 [7] was 9.18 µM (inactive), the GI50 [8] was > 10 µM (inactive) and the GI50 [18] was 4.83 µM (inactive). The GI50 [10] was > 10 µM (inactive), the GI50 [11] was 7.73 µM (inactive) and the GI50 [12] was 8.32 µM (inactive). For the same compound, the GI50 [13] was 6.3 µM (inactive), the GI50 [14] was > 10 µM (inactive) and the GI50 [15] was 6.28 µM (inactive). The GI50 [16] was > 10 µM (inactive), the GI50 [17] was 6.27 µM (inactive) and the GI50 [19] was > 10 µM (inactive). The GI50 [20] was > 10 µM (inactive).

For `O=C1c2c(ccc3c2CCCC3)CC12Cc1ccc3c(c1C2=O)CCCC3`, the GI50 [1] was > 100 µM (inactive), the GI50 [2] was 77.4 µM (inactive) and the GI50 [3] was > 100 µM (inactive). The GI50 [4] was > 100 µM (inactive), the GI50 [6] was > 100 µM (inactive) and the GI50 [7] was > 100 µM (inactive). The GI50 [8] was > 100 µM (inactive), the GI50 [9] was > 100 µM (inactive) and the GI50 [18] was > 100 µM (inactive). The GI50 [10] was > 100 µM (inactive), the GI50 [12] was > 100 µM (inactive) and the GI50 [13] was 89.1 µM (inactive). The GI50 [14] was > 100 µM (inactive), the GI50 [15] was > 100 µM (inactive) and the GI50 [16] was > 100 µM (inactive). For the same compound, the GI50 [19] was > 100 µM (inactive) and the GI50 [20] was > 100 µM (inactive).

In the case of `COc1cc2c3c(c1OC)C(=O)C(=O)C1=C3N(CCC1)CC2`, the GI50 [1] is reported as 24.3 µM (inactive), the GI50 [2] is reported as 18.5 µM (inactive) and the GI50 [3] is reported as 36.9 µM (inactive). The GI50 [4] was 31.5 µM (inactive), the GI50 [5] was 17 µM (inactive) and the GI50 [6] was 20.3 µM (inactive). For the same compound, the GI50 [7] was 19.1 µM (inactive), the GI50 [8] was 23.6 µM (inactive) and the GI50 [18] was 29.6 µM (inactive). The GI50 [10] was 28.6 µM (inactive), the GI50 [11] was 18.1 µM (inactive) and the GI50 [12] was 17.5 µM (inactive). The GI50 [13] was 30.3 µM (inactive), the GI50 [14] was 26.6 µM (inactive) and the GI50 [15] was 32.4 µM (inactive). For the same compound, the GI50 [16] was 23.5 µM (inactive) and the GI50 [19] was 26.4 µM (inactive).

`O=C1CC[C@@]2(O)[C@H]3Cc4ccc(-c5ccccc5)c5c4[C@@]2(CCN3CC2CC2)[C@H]1O5` was tested, and the GI50 [1] was 13.7 µM (inactive), the GI50 [2] was 16.9 µM (inactive) and the GI50 [3] was 42.4 µM (inactive). For the same compound, the GI50 [4] was 19 µM (inactive), the GI50 [5] was 18.9 µM (inactive) and the GI50 [6] was 24.4 µM (inactive). For the same compound, the GI50 [7] was 17.9 µM (inactive), the GI50 [8] was 18.1 µM (inactive) and the GI50 [18] was 16.8 µM (inactive). For the same compound, the GI50 [10] was 16 µM (inactive), the GI50 [11] was 12.2 µM (inactive) and the GI50 [12] was 19.6 µM (inactive). For the same compound, the GI50 [13] was 18.1 µM (inactive), the GI50 [14] was 9.66 µM (inactive) and the GI50 [15] was 10.3 µM (inactive). The GI50 [16] was 19.2 µM (inactive), the GI50 [17] was 20.3 µM (inactive) and the GI50 [19] was 17.6 µM (inactive). For the same compound, the GI50 [20] was 23.9 µM (inactive).

`CC(C)(C)[Si](C)(C)OCC1OC(n2ccc(=O)[nH]c2=O)C(O[Si](C)(C)C(C)(C)C)[C@@]12O[C@H]2C(N)=O` (stereo not given in full) was tested, and the GI50 [1] was 3.39 µM (inactive), the GI50 [2] was 4.08 µM (inactive) and the GI50 [3] was 17.6 µM (inactive). For the same compound, the GI50 [4] was 5.61 µM (inactive), the GI50 [5] was 7.67 µM (inactive) and the GI50 [6] was > 10 µM (inactive). For the same compound, the GI50 [7] was 96.6 µM (inactive), the GI50 [8] was 11.5 µM (inactive) and the GI50 [9] was 10.1 µM (inactive). For the same compound, the GI50 [18] was 3.05 µM (inactive), the GI50 [10] was 26.2 µM (inactive) and the GI50 [11] was 18.7 µM (inactive). The GI50 [12] was 16.2 µM (inactive), the GI50 [13] was > 10 µM (inactive) and the GI50 [15] was 6.01 µM (inactive). The GI50 [16] was 4.56 µM (inactive), the GI50 [17] was 0.445 µM (active) and the GI50 [19] was 11.3 µM (inactive). The GI50 [20] was 19 µM (inactive).

`O=C(O)Cc1ccc(Nc2nc3cc(C(F)(F)F)ccc3nc2C(=O)O)cc1` was tested, and the GI50 [1] was > 100 µM (inactive), the GI50 [2] was > 100 µM (inactive) and the GI50 [3] was > 100 µM (inactive). The GI50 [4] was > 100 µM (inactive), the GI50 [5] was > 100 µM (inactive) and the GI50 [7] was > 100 µM (inactive). The GI50 [8] was > 100 µM (inactive), the GI50 [9] was > 100 µM (inactive) and the GI50 [18] was > 100 µM (inactive). The GI50 [10] was > 100 µM (inactive), the GI50 [11] was > 100 µM (inactive) and the GI50 [12] was > 100 µM (inactive). For the same compound, the GI50 [13] was > 100 µM (inactive), the GI50 [14] was > 100 µM (inactive) and the GI50 [15] was > 100 µM (inactive). For the same compound, the GI50 [16] was > 100 µM (inactive), the GI50 [17] was > 100 µM (inactive) and the GI50 [19] was > 100 µM (inactive). For the same compound, the GI50 [20] was > 100 µM (inactive).

With `COc1ccc2c(c1O)-c1c(OC)c(OC)cc3c1[C@H](C2)[N+](C)(C)CC3` the GI50 [1] was > 100 µM (inactive), the GI50 [2] was > 100 µM (inactive) and the GI50 [3] was > 100 µM (inactive). For the same compound, the GI50 [4] was > 100 µM (inactive), the GI50 [5] was > 100 µM (inactive) and the GI50 [6] was > 100 µM (inactive). For the same compound, the GI50 [7] was > 100 µM (inactive), the GI50 [8] was > 100 µM (inactive) and the GI50 [9] was > 100 µM (inactive). For the same compound, the GI50 [18] was > 100 µM (inactive), the GI50 [10] was > 100 µM (inactive) and the GI50 [11] was > 100 µM (inactive). For the same compound, the GI50 [12] was > 100 µM (inactive), the GI50 [13] was > 100 µM (inactive) and the GI50 [15] was > 100 µM (inactive). For the same compound, the GI50 [16] was > 100 µM (inactive), the GI50 [17] was > 100 µM (inactive) and the GI50 [19] was > 100 µM (inactive). For the same compound, the GI50 [20] was > 100 µM (inactive).

With `N[C@H](C(=O)O)[C@@H]1CC(Cl)=NO1` [ACIVICIN] the GI50 [1] was 0.787 µM (active), the GI50 [2] was 0.746 µM (active) and the GI50 [3] was 4.4 µM (inactive). The GI50 [4] was 1.48 µM (inactive), the GI50 [6] was 1.19 µM (inactive) and the GI50 [7] was 3.44 µM (inactive). The GI50 [8] was 2.17 µM (inactive), the GI50 [9] was 25.9 µM (inactive) and the GI50 [18] was 3.56 µM (inactive). The GI50 [10] was 4.8 µM (inactive), the GI50 [11] was 2.79 µM (inactive) and the GI50 [12] was 2.54 µM (inactive). The GI50 [13] was 6.84 µM (inactive), the GI50 [14] was 7.62 µM (inactive) and the GI50 [15] was 1.07 µM (active). For the same compound, the GI50 [19] was 2.9 µM (inactive) and the GI50 [20] was 12.6 µM (inactive).
